Experimental data from US9456992B2 (XSPRAY MICROPARTICLES AB, priority 2012, dated 2016).
Counter-ions that a name gives are not always drawn.

Legend:
[1] = Dissolution rate measurement in sink conditions, flow through cell system, FaSSIF, 37° C.; format: physicochemical; conditions: initial slope of accumulated % solubilized vs time, 0 to 10 minutes; sink condition in FaSSIF, 37° C.
Method: Typically, said dissolution rate is measured by a flow through cell system in sink conditions, e.g., according to the US Pharmacopea (USP4). Dissolution measurement in sink conditions of hybrid nanoparticles may be measured in a method consisting of adding the wished amount of powder into a flow through cell system (SOTAX, Allschwill, Switzerland), mounting the cell onto its apparatus and then pumping the appropriate medium (typically FaSSIF, FeSSIF, SGF) through the powder. The temperature of the apparatus is typically set to 37° C. The amount of powder added into the cell depends on drug load of the powder: The exact amount of powder can be calculated from results obtained from drug load analysis of the powders. The PKI may be added into the flow through cell and a flow rate between 5 and 25 ml medium/min is pumped through the powder. […] Samples are typically taken after 0, 0.5, 1, 1.5, 2, 3, 4, 5, 6, 7, 8, 9, 10, 15, 20, 25, 30, 35 and 40 min from the moment the medium comes out from the flow through cell. The accumulated % solubilized of the amount of active substance added into the flow through cell can be calculated and plotted against time (min). The initial slope (“initial dissolution rate”, representing 0-10 minutes) of the graph may be estimated and taken as the dissolution rate of the material in sink condition at 37° C. in the given dissolution medium.
Typically, said dissolution rate is measured by a flow through cell system, for instance in sink conditions. […] The temperature of the apparatus is typically set to 37° C. The amount of powder added into the cell depends on drug load of the powder: The exact amount of powder can be calculated from results obtained from drug load analysis of the powders. The PKI may be added into the flow through cell and a flow rate between 5 and 25 ml medium/min is pumped through the powder. […] Samples are typically taken after 0, 0.5, 1, 1.5, 2, 3, 4, 5, 6, 7, 8, 9, 10, 15, 20, 25, 30, 35 and 40 min from the moment the medium comes out from the flow through cell. The accumulated % solubilized of the amount of active substance added into the flow through cell, can be calculated and plotted against time (min). The initial slope (“initial dissolution rate”, representing 0-10 minutes) of the graph can be estimated and taken as the dissolution rate of the material in sink condition at 37° C. in the given dissolution medium.
Dissolution measurement in sink conditions of compositions of the invention were measured in a method consisting of adding the wished amount of powder into a flow through cell system (SOTAX, Allschwill, Switzerland), mounting the cell onto its apparatus and then pumping the appropriate medium (typically FaSSIF, FeSSIF, SGF) through the powder. The temperature of the apparatus was set to 37° C. The amount of powder added into the cell depends on drug load of the powder: The exact amount of powder was calculated from results obtained from drug load analysis of the powders.
Typically, 3.5 to 7 mg PKI was added into the flow through cell and a flow rate between 8 and 16 ml medium/min (preferably about 8 ml medium/min) was pumped through the powder. One ml samples of the medium passing through the cell were collected at predetermined times. […] Samples were taken after 0, 0.5, 1, 1.5, 2, 3, 4, 5, 6, 7, 8, 9, 10, 15, 20, 25, 30, 35 and 40 min from the moment the medium comes out from the flow through cell. The accumulated % solubilized of the amount of active substance added into the flow through cell was calculated and plotted against time (min). The initial slope (“initial dissolution rate”) of the graph was estimated, as measured during 0 to 10 minutes, and taken as the dissolution rate of the material in sink condition at 37° C. in the given dissolution medium.

[2] = Dissolution measurement assay (apparent solubility, non-sink) in FeSSIF solution (pH 5); format: physicochemical
Method: The medium was prepared in accordance with the manufacturer's instructions. The amount of powder added depends on the wished “total PKI concentration”. […] For other experiments, the drug load was first estimated by HPLC and the amount of powder to obtain the drug concentration was calculated.
Typically, the powder was added in a 8 mL glass bottle and 7 mL of solution was added (typically FaSSIF, FeSSIF or SGF). The glass bottle was put on a shaker (approximately 1 rotation per minute) for dissolution. Samples of 500 μl where taken after different times, and subsequently centrifuged at approximately 15000 g for 3 minutes. The resulting supernatant was then analyzed by HPLC (C18 column Eclipse, 4.6 mm×15 cm, 1 mL/min, detection at 254-400 nM. Generally samples were taken after 5, 30 and 90 min and eventually 150 min.
The experiments were carried out by measuring concentration of solubilized PKI (mg/L) after 5, 30 and 90 minutes dissolution in a solution at about pH 6.5, namely FaSSIF (Fasted State Simulated Intestinal Fluid). Further, experiments were carried out in an alternative solution at about pH 5, namely FeSSIF (Fed State Simulated Intestinal Fluid). Samples of the solution were taken at various time intervals and the amount of protein kinase inhibitor was measured by the dissolution measurement assay described above.
The experiments were carried out by measuring concentration of PKI (mg/L) after 5, 30 and 90 minutes dissolution in a solution at about pH 6.5, namely FaSSIF (Fasted State Simulated Intestinal Fluid). Further, experiments were carried out in an alternative solution at about pH 5, namely FeSSIF (Fed State Simulated Intestinal Fluid). Samples of the solution were taken at various time intervals and the amount of PKI was measured by the dissolution measurement assay described above.

Compound	Initial Dissolution Rate [1]	further results
CNC(=O)c1cc(Oc2ccc(NC(=O)Nc3ccc(Cl)c(C(F)(F)F)c3)cc2)ccn1 [Exp 560, sorafenib tosylate]	0.47	
C[C@@H](Oc1cc(-c2cnn(C3CCNCC3)c2)cnc1N)c1c(Cl)ccc(F)c1Cl [Exp 570, crizotinib]	6.6	
COc1cc2ncnc(Nc3ccc(F)c(Cl)c3)c2cc1OCCCN1CCOCC1 [Exp 540, gefitinib]	2.2	
Cc1cn(-c2cc(NC(=O)c3ccc(C)c(Nc4nccc(-c5cccnc5)n4)c3)cc(C(F)(F)F)c2)cn1 [Exp 41, Nilotinib HCl]		% solubilized 30 min. ([2]; nilotinib HCl, after 30 minutes dissolution): 0.18%
Cc1cn(-c2cc(NC(=O)c3ccc(C)c(Nc4nccc(-c5cccnc5)n4)c3)cc(C(F)(F)F)c2)cn1 [Exp 500, nilotinib HCl]	0.27	
C#Cc1cccc(Nc2ncnc3cc(OCCOC)c(OCCOC)cc23)c1 [Exp 69, Erlotinib HCl]		% solubilized 30 min. ([2]; erlotinib HCl, 30 min dissolution): 19.0%; AUC/ 90 min. ([2]; erlotinib HCl, AUC during 90 min dissolution): 16303 Mg/min/L
